In experiment [1] the test system is other members of the CD28 family. The note with it: selectivity; cited from earlier work.
In experiment [2] the test system is p21 gene expression. Put plainly: Gene expression analysis of PBMC samples from relapsed/refractory myelofibrosis patients: p21. In kind it is in vivo, human. The note with it: R/R myelofibrosis patients, 120 mg or 240 mg for 7 days or 240 mg for 5 days, C1D1 pre-dose vs C1D5, C1D6/8, FIG. 1. An excerpt:
(§1) FIG. 1 illustrates that the compound of Formula (I) induces p21 and represses Myc in relapsed/refractory myelofibrosis (R/R MF) patients. PBMC samples from the patients were used for the gene expression analyses. fdr.q refers to false discovery rate adjusted significance value for change in normalized gene expression. C1D1 refers to Cycle 1, Day 1. C1D5 refers to Cycle 1, Day 5. C1D6/8 refers to Cycle 1, Day 6 or 8.
(§2) Effects of the compound of Formula (I) were investigated on the gene expression of p21 and Myc in the patients of relapsed/refractory myelofibrosis. In the study, The compound of Formula (I) is administered at 120 mg for 7 days for Cohort 1, 240 mg for 7 days for Cohort 2, 240 mg for 7 days for Cohort 3, and 240 mg for 5 days for Cohort 4.
(§3) The peripheral blood mononuclear cell (PBMC) samples were taken from the patients pre-dosing on day 1 of cycle 1, day 5 of cycle 1, day 6 of cycle 1, and day 8 of cycle 1.

Experiment [3] relates to Myc gene expression. The experiment is described as follows: Gene expression analysis of PBMC samples from relapsed/refractory myelofibrosis patients: Myc. In kind it is in vivo, human. The settings on record: R/R myelofibrosis patients, 120 mg or 240 mg for 7 days or 240 mg for 5 days, C1D1 pre-dose vs C1D5, C1D6/8, FIG. 1.
Source text: as §1, §2, §3

The test system of experiment [4] is p21 gene expression. The experiment is described as follows: Gene expression analysis of PBMC samples from relapsed/refractory AML patients: p21. In kind it is in vivo, human. The settings on record: R/R AML patients, 120, 180, 240 or 360 mg daily for seven days, C1D1 pre-dose vs C1D5, FIG. 2. Here is the method:
(§4) FIG. 2 illustrates that the compound of Formula (I) induces p21 and represses Myc in relapsed/refractory acute myeloid leukemia (AML) patients. PBMC samples from the patients were used for the gene expression analyses. C1D1 refers to Cycle 1 Day 1. C1D5 refers to Cycle 1 Day 5.
(§5) Effects of the compound of Formula (I) were investigated on the gene expression of p21 and Myc in the AML patients.
(§6) In dose-escalation phase study, the dosing of the compound of Formula (I) is 120 mg (three patients); 180 mg (2 patients), 240 mg (8 patients), and 360 mg (4 patients) daily for seven days, with different ‘off-treatment’ duration depending on cohort assignments. The peripheral blood mononuclear cell (PBMC) samples were taken from patients pre-dosing on day 1 of cycle 1, and day 5 of cycle 1.

Experiment [5] relates to Myc gene expression. Put plainly: Gene expression analysis of PBMC samples from relapsed/refractory AML patients: Myc. In kind it is in vivo, human. The settings on record: R/R AML patients, 120, 180, 240 or 360 mg daily for seven days, C1D1 pre-dose vs C1D5, FIG. 2. The method, then: as §4, §5, §6

Take “5C4: fully human IgG4 antibody blocking the PD-1 receptor; 5C4 in WO 2006/121168 and U.S. Pat. No. 8,008,449 [Formula 5C4]”: the “binding to other members of the CD28 family” value in experiment [1] is “do not bind”.
As for `CC(C)[C@@H](CS(=O)(=O)C(C)C)N1C(=O)[C@@](C)(CC(=O)O)CC(c2cccc(Cl)c2)[C@H]1c1ccc(Cl)cc1` (stereo partly drawn) [Formula (I), 2-((3R,5R,6S)-5-(3-chlorophenyl)-6-(4-chlorophenyl)-1-((S)-1-(isopropylsulfony1)-3-methylbutan-2-y1)-3-methyl-2-oxopiperidin-3-yl) acetic acid], the “effect on p21 gene expression” value in experiment [2] and in experiment [4] was “induces” each time. In addition, the “effect on Myc gene expression” value in experiment [3] and in experiment [5] was “represses” in each case.

The values above are taken from patent publication US20250134877A1, “METHODS OF TREATING CANCER DEPENDENT ON MYC GENE EXPRESSSION” (KARTOS THERAPEUTICS, priority 2021, published 2025).
